One molecule from patent US12559573B2, “Biotin-specific monoclonal antibody and use thereof” (Roche Diagnostics Operations, Inc., priority 2016, dated 2026) can be followed below.

This assay in a line: Biotin interference in Elecsys TSH sandwich assay. Particulars: control reagent without anti-biotin antibody. The method, then: The control sample for the Elecsys TSH assay, PreciControl Universal 2 is spiked with rising concentrations of biotin (e.g. 0, 100 and 200 ng/mL final concentration of biotin). Reagent 2 of the Elecsys TSH sales kit containing the anti TSH detection-antibody is used in a unmodified version (control), and a modified version, additionally containing 300 μg/mL of an monoclonal anti Biotin antibody according to the invention. The sandwich assay is performed according to the routine assay protocol for the Elecsys TSH assay: Shortly, 50 μL of Sample (PreciControl Universal 2 with or without biotin) are incubated with 60 μL of Reagent 1 of the Elecsys TSH kit containing the biotinylated anti-TSH antibody and 50 μL of Reagent 2 containing the ruthenylated anti-TSH antibody with or without further addition of 300 μg/mL of the monoclonal anti Biotin antibody. After incubation at 37° C. for 9 min, 40 μL suspension of streptavidin coated magnetic beads of the Elecsys TSH kit are added, the reaction is incubated for another 9 min and finally the reaction mixture is aspirated into the measuring cell where the microparticles are magnetically captured onto the surface of the electrode. Unbound substances are then removed with ProCell. Application of a voltage to the electrode then induces electrochemiluminescense-based emission of light which is measured by a photomultiplier.

In the case of `O=C(O)CCCC[C@@H]1SC[C@@H]2NC(=O)N[C@@H]21` [biotin, 5-[(3aS,4S,6aR)-2-oxo-1,3,3a,4,6,6a-hexahydrothieno[3,4-d]imidazol-4-yl]pentanoic acid], the “Signal relative to reference signal (sample without biotin)” value (100 ng/mL biotin in sample) worked out at 53% and the “Signal relative to reference signal (sample without biotin)” value (200 ng/mL biotin in sample) is 16%.
